The nature of data set [1]: aqueous solubility of crystalline Compound A. The class given is physicochemical. The following applies: 26° C. The text has this:
The compound (4R)—N-allyl-3-{(2S,3S)-2-hydroxy-3-[(3-hydroxy-2-methylbenzoyl)amino]-4-phenylbutanoyl}-5,5-dimethyl-1,3-thiazolidine-4-carboxamide (also called “(R)-3-((2S,3S)-2-hydroxy-3-{[1-(3-hydroxy-2-methyl-phenyl)-methanoyl]-amino}-4-phenyl-butanoyl)-5,5-dimethyl-thiazolidine-4-carboxylic acid allylamide,” “(4R)-3-[(2S,3S)-2-hydroxy-3-(3-hydroxy-2-methyl-benzoylamino)-4-phenyl-butyryl]-5,5-dimethyl-thiazolidine-4-carboxylic acid allylamide,” or “4-thiazolidinecarboxamide, 3-[(2S,3S)-2-hydroxy-3-[(3-hydroxy-2-methylbenzoyl)amino]-1-oxo-4-phenylbutyl]-5,5-dimethyl-N-2-propenyl-, (4R)-,” and hereinafter referred to as “Compound A”) is an inhibitor of the HIV protease enzyme that may be used for the treatment of HIV-infected mammals, such as humans. Compound A and its preparation are disclosed in U.S. patent application Ser. Nos. 10/166,979 filed Jun. 11, 2002; 60/527,477, filed Dec. 4, 2003, and, 10/782,602, filed Dec. 4, 2003, all of which incorporated herein by reference for this purpose. […] This low aqueous solubility, combined with a low in vivo permeability, result in low oral bioavailability for crystalline Compound A.

The nature of data set [2]: oral dosing to fasted beagle dogs, plasma drug concentration. The class given is in vivo. The following applies: 25 mgA/kg; for AUC0-Tlast: oral gavage suspension in 0.5 wt % Methocel, plasma. As to the method:
The area under the concentration-versus-time curve (“AUCO-Tlast”, ng*hr/mL), from the time the dose was administered to the last sample, is shown in Table 17. Crystalline Form I of Compound A (Control 1) and amorphous Compound A (Example 1) were tested using a similar protocol. The dose was administered to dogs as a suspension in a solution containing 0.5 wt % Methocel® (HPMC, USP grade, 4000 cps, Dow Chemical Co.). Oral administration of the aqueous drug suspensions was facilitated using an oral gavage equipped with a polyethylene tube insert. The polyethylene tube insert was used to accurately deliver the desired volume of dose by displacement, without the need for additional volume of water to rinse the tube. The dose was 25 mgA/kg (“mgA” refers to mg of active drug).

Data set [3] can be described thus: in vitro dissolution test in PBS at pH 6.5 and 290 mOsm/kg, 37° C. The data set is classed as physicochemical. Set-up: AUC: concentration or dose not given beside the values. The settings on record: for AUC90 (area under the concentration-versus-time curve during the initial ninety minutes) / AUC1200 / C1200 (Compound A concentration at 1200 minutes) / MDC90 (maximum concentration of drug during the initial ninety minutes): dose 3000 μg/mL; for Compound A Concentration: 3000 μg/mL if all dissolved. As to the method:
An in vitro dissolution test was performed to determine whether the amorphous Compound A of Example 1 provides concentration-enhancement relative to the crystalline form of Compound A. For this test, a sufficient amount of material was added to a microcentrifuge test tube so that the concentration of Compound A would have been 3000 μg/mL, if all of Compound A had dissolved. The test was run in duplicate. The tubes were placed in a 37° C. temperature-controlled chamber, and 1.8 mL PBS at pH 6.5 and 290 mOsm/kg was added to each respective tube. The samples were quickly mixed using a vortex mixer for about 60 seconds. The samples were centrifuged at 13,000 G at 37° C. for 1 minute. The resulting supernatant solution was then sampled and diluted 1:6 (by volume) with methanol and then analyzed by high-performance liquid chromatography (HPLC). HPLC analysis was performed using a Phenomenex Luna C18 column. The mobile phase consisted of 55% 20 mM KH2PO4, adjusted to pH 3 with H3PO4, and 45% acetonitrile. UV absorbance was measured at 210 nm. The contents of each tube were mixed on the vortex mixer and allowed to stand undisturbed at 37° C. until the next sample was taken. Samples were collected at 4, 10, 20, 40, 90 and 1200 minutes. Control 1 consisted of crystalline Form I of Compound A alone, and a sufficient amount of material was added so that the concentration of Compound A would have been 3000 μg/mL, if all of Compound A had dissolved. The concentrations of drug obtained in these samples were used to determine the maximum concentration of drug (“MDC90”), the area under the concentration-versus-time curve (“AUC90”) during the initial ninety minutes, and the Compound A concentration at 1200 minutes (“[…]”). Example 2 was prepared by combining amorphous Compound A and a concentration-enhancing polymer. A simple physical mixture of Compound A and the concentration-enhancing polymer hydroxypropyl methyl cellulose acetate succinate (AQUOT-MG, available from Shin Etsu, Tokyo, Japan) was prepared by adding 5.4 mg of amorphous Compound A prepared as in Example 1 and 0.6 mg of HPMCAS to a centrifuge tube. The dry powders were mixed using a vortex mixer for 1 minute. Dissolution tests were performed as described in Example 1. […] For these tests, a sufficient amount of material was added so that the concentration of Compound A would have been 3000 μg/mL, if all of Compound A had dissolved. […] Examples 37A, 37B and 37C were prepared as in Example 2, but with the following exceptions: Example 37A was 5.4 mg Compound A and 0.6 mg HPMCAS; Example 37B was 5.4 mg Compound A and 0.167 mg HPMCAS; and Example 37C was 5.4 mg Compound A and 0.055 mg HPMCAS. Example 37D consisted of amorphous Compound A alone. MDC360 is the maximum dissolved drug concentration within the first 360 minutes, and AUC360 is the area under the dissolved drug concentration versus time curve at 360 minutes.

[4] abbreviates: time 10 min, PBS pH 6.5, 37° C.
Where [5] appears, read: time 20 min, PBS pH 6.5, 37° C.
[6] abbreviates: time 40 min, PBS pH 6.5, 37° C.
Setting [7] is: time 90 min, PBS pH 6.5, 37° C.
The mark [8] stands for this setting: time 1200 min, PBS pH 6.5, 37° C.
Where [9] appears, read: PBS pH 6.5, 37° C., listed as Ex 1.

This note sets out measurements from US20050129772A1, “Compositions comprising an HIV protease inhibitor” (Agouron Pharmaceuticals, Inc., priority 2003, published 2005).

“And” between values parts separate entries of the source, which are not always exact repeats. Identical values can stand only once.

For `C=CCNC(=O)[C@H]1N(C(=O)[C@@H](O)[C@H](Cc2ccccc2)NC(=O)c2cccc(O)c2C)CSC1(C)C` [Compound A, (4R)—N-allyl-3-{(2S,3S)-2-hydroxy-3-[(3-hydroxy-2-methylbenzoyl)amino]-4-phenylbutanoyl}-5,5-dimethyl-1,3-thiazolidine-4-carboxamide], the aqueous solubility entry is “about 0.16 mgA/mL” in data set [1] (0.1 N HCl (pH 1.2)), approximately 0.14 mgA/mL in data set [1] (normal saline (pH 8.2)) and “about 0.16 mgA/mL” in data set [1] (unbuffered water (pH 8.3)).

Turning to `C=CCNC(=O)[C@H]1N(C(=O)[C@@H](O)[C@H](Cc2ccccc2)NC(=O)c2cccc(O)c2C)CSC1(C)C` [Control 1, (4R)—N-allyl-3-{(2S,3S)-2-hydroxy-3-[(3-hydroxy-2-methylbenzoyl)amino]-4-phenylbutanoyl}-5,5-dimethyl-1,3-thiazolidine-4-carboxamide], the AUC0-Tlast in data set [2] came to 300 ng·h/mL. The “AUC90 (area under the concentration-versus-time curve during the initial ninety minutes)” value in data set [3] (PBS pH 6.5, 37° C.) was 9200 µg·min/mL. Moreover, the AUC1200 in data set [3] (PBS pH 6.5, 37° C.) is 132,000 min*μg/mL. Also, the “C1200 (Compound A concentration at 1200 minutes)” value in data set [3] (PBS pH 6.5, 37° C.) stood at 109 µg/mL. In addition, in data set [3] (PBS pH 6.5, 37° C.), the “MDC90 (maximum concentration of drug during the initial ninety minutes)” value stood at 112 µg/mL. Moreover, the exposure (AUC) was 0 µg·min/mL in data set [3] (time 0 min, PBS pH 6.5, 37° C.); 200 µg·min/mL in data set [3] (time 4 min, PBS pH 6.5, 37° C.); 800 µg·min/mL in data set [3] (setting [4]); 1800 µg·min/mL in data set [3] (setting [5]); 3900 µg·min/mL in data set [3] (setting [6]); 9200 µg·min/mL in data set [3] (setting [7]). Also, the AUC in data set [3] (setting [8]) is recorded as 131,700 min * μg/mL. In addition, the “Compound A Concentration” value in data set [3] (time 0 min, PBS pH 6.5, 37° C.) worked out at 0 µg/mL; in data set [3] (time 4 min, PBS pH 6.5, 37° C.), 100 µg/mL; in data set [3] (setting [4]), 100 µg/mL; in data set [3] (setting [5]), 106 µg/mL; in data set [3] (setting [6]), 101 µg/mL; in data set [3] (setting [7]), 112 µg/mL. The “Compound A Concentration” value in data set [3] (setting [8]) was 109 µg/mL.

`C=CCNC(=O)[C@H]1N(C(=O)[C@@H](O)[C@H](Cc2ccccc2)NC(=O)c2cccc(O)c2C)CSC1(C)C` [Example 1, (4R)—N-allyl-3-{(2S,3S)-2-hydroxy-3-[(3-hydroxy-2-methylbenzoyl)amino]-4-phenylbutanoyl}-5,5-dimethyl-1,3-thiazolidine-4-carboxamide] gave an AUC0-Tlast in data set [2] of 3500 ng·h/mL. The “relative bioavailability (AUC of test composition divided by AUC of crystalline Form I of Compound A alone)” value in data set [2] (oral) is 11.7 fold. The “AUC90 relative to crystalline Form I of Compound A” value in data set [3] (PBS pH 6.5, 37° C.) is recorded as 8.3 fold. Further, in data set [3] (PBS pH 6.5, 37° C.), the “MDC relative to crystalline Form I of Compound A” value was 10.3 fold. Moreover, the “AUC90 (area under the concentration-versus-time curve during the initial ninety minutes)” value is on record as 75,900 min * μg/mL in data set [3] (PBS pH 6.5, 37° C.) and 75,900 min * μg/mL in data set [3] (setting [9]). The AUC1200 in data set [3] (PBS pH 6.5, 37° C.) is on record as 233,000 min*μg/mL. For the same molecule, the “C1200 (Compound A concentration at 1200 minutes)” value in data set [3] (PBS pH 6.5, 37° C.) came to 126 µg/mL; in data set [3] (setting [9]), 126 µg/mL. Besides, the “MDC90 (maximum concentration of drug during the initial ninety minutes)” value in data set [3] (PBS pH 6.5, 37° C.) is 1153 µg/mL and 1150 µg/mL; in data set [3] (setting [9]), 1150 µg/mL. Besides, the AUC in data set [3] (time 0 min, PBS pH 6.5, 37° C.) was 0 µg·min/mL; in data set [3] (time 4 min, PBS pH 6.5, 37° C.) it was 2100 µg·min/mL; in data set [3] (setting [4]) it was 8800 µg·min/mL; in data set [3] (setting [5]) it was 20,200 min * μg/mL; in data set [3] (setting [6]), 43,200 min * μg/mL; in data set [3] (setting [7]), 75,900 min * μg/mL. The AUC in data set [3] (setting [8]) is 233,200 min * μg/mL. For the same molecule, the “Compound A Concentration” value in data set [3] (time 0 min, PBS pH 6.5, 37° C.) came to 0 µg/mL; in data set [3] (time 4 min, PBS pH 6.5, 37° C.), 1070 µg/mL; in data set [3] (setting [4]) it was 1140 µg/mL; in data set [3] (setting [5]) it was 1150 µg/mL; in data set [3] (setting [6]) it was 1150 µg/mL; in data set [3] (setting [7]), 158 µg/mL. The “Compound A Concentration” value in data set [3] (setting [8]) came out at 126 µg/mL.

Turning to `C=CCNC(=O)[C@H]1N(C(=O)[C@@H](O)[C@H](Cc2ccccc2)NC(=O)c2cccc(O)c2C)CSC1(C)C` [Example 37D, (4R)—N-allyl-3-{(2S,3S)-2-hydroxy-3-[(3-hydroxy-2-methylbenzoyl)amino]-4-phenylbutanoyl}-5,5-dimethyl-1,3-thiazolidine-4-carboxamide], in data set [3] (dissolution as in Example 2), the “AUC360 (area under the dissolved drug concentration versus time curve at 360 minutes)” value was 180,000 min*μg/ml and the “MDC360 (maximum dissolved drug concentration within the first 360 minutes)” value turned out to be 1190 µg/mL. The C1200 in data set [3] (dissolution as in Example 2 (Example 37 series)) was 140 µg/mL.
